From ChEMBL document CHEMBL1201862, “PubChem BioAssay data set” (2004)
Values joined by “and” are separate entries in the source; they are usually repeats but may differ in a detail not shown here. Equal entries are not always repeated.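 Where inhibition never reached the appropriate level, the endpoint shown equals the highest concentration tested. Otherwise, values were interpolated linearly from a five-concentration, 48-hour dose response in 96-well plates. GI50 marks 50% less growth.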 Active and inactive are the calls of the source. Cut-off read from the data, not from the text of the source: active = GI50 up to about 1.1 µM and inactive = higher.

How the values were obtained:
Experiment in all cases: NCI tumour cell line growth inhibition, 48 h
SK-OV-3 = system: SK-OV-3
HCT-116 = system: HCT-116
MCF7 = system: MCF7
U-251 = system: U-251
HT-29 = system: HT-29
786-0 = system: 786-0
SF-268 = system: SF-268
NCI-H226 = system: NCI-H226
CCRF-CEM = system: CCRF-CEM
HL-60 = system: HL-60
A498 = system: A498
RPMI-8226 = system: RPMI-8226
CAKI-1 = system: CAKI-1
HCT-15 = system: HCT-15
TK-10 = system: TK-10
SNB-19 = system: SNB-19
NCI-H460 = system: NCI-H460
OVCAR-4 = system: OVCAR-4
OVCAR-3 = system: OVCAR-3
HOP-62 = system: HOP-62
MDA-MB-231 = system: MDA-MB-231
OVCAR-8 = system: OVCAR-8
SF-295 = system: SF-295
BT-549 = system: BT-549
HOP-92 = system: HOP-92
SF-539 = system: SF-539
UACC-257 = system: UACC-257
SN12C = system: SN12C
NCI/ADR-RES = system: NCI/ADR-RES
MDA-MB-435 = system: MDA-MB-435
K562 = system: K562
UACC-62 = system: UACC-62
OVCAR-5 = system: OVCAR-5
KM12 = system: KM12
SW-620 = system: SW-620
MOLT-4 = system: MOLT-4
DU-145 = system: DU-145
SK-MEL-2 = system: SK-MEL-2
Hs-578T = system: Hs-578T
IGROV-1 = system: IGROV-1
SK-MEL-28 = system: SK-MEL-28
LOX IMVI = system: LOX IMVI
EKVX = system: EKVX
NCI-H23 = system: NCI-H23
A549 = system: A549
SK-MEL-5 = system: SK-MEL-5
PC-3 = system: PC-3
Malme-3M = system: Malme-3M
RXF 393 = system: RXF 393
COLO 205 = system: COLO 205
SNB-75 = system: SNB-75
SR = system: SR
T47D = system: T47D
ACHN = system: ACHN
M14 = system: M14
UO-31 = system: UO-31
HCC 2998 = system: HCC 2998
NCI-H522 = system: NCI-H522
MDA-N = system: MDA-N

`O=C(O)C1=NN(c2ccc(S(=O)(=O)O)cc2)C2(C1)SCC(=O)N2c1nc2ccccc2s1` (stereo unspecified) was tested, and the GI50 (SK-OV-3) was > 100 µM (inactive), the GI50 (HCT-116) was > 100 µM (inactive) and the GI50 (MCF7) was > 100 µM (inactive). For the same compound, the GI50 (U-251) was > 100 µM (inactive), the GI50 (HT-29) was > 100 µM (inactive) and the GI50 (786-0) was > 100 µM (inactive). For the same compound, the GI50 (SF-268) was > 100 µM (inactive), the GI50 (NCI-H226) was 5.3 µM (inactive) and the GI50 (CCRF-CEM) was > 100 µM (inactive). The GI50 (HL-60) was > 100 µM (inactive), the GI50 (A498) was > 100 µM (inactive) and the GI50 (RPMI-8226) was > 100 µM (inactive). The GI50 (CAKI-1) was > 100 µM (inactive), the GI50 (HCT-15) was > 100 µM and the GI50 (TK-10) was > 100 µM (inactive). The GI50 (SNB-19) was > 100 µM (inactive), the GI50 (NCI-H460) was > 100 µM (inactive) and the GI50 (OVCAR-4) was > 100 µM (inactive). For the same compound, the GI50 (OVCAR-3) was > 100 µM (inactive), the GI50 (HOP-62) was > 100 µM (inactive) and the GI50 (MDA-MB-231) was > 100 µM (inactive). For the same compound, the GI50 (OVCAR-8) was > 100 µM (inactive), the GI50 (SF-295) was > 100 µM (inactive) and the GI50 (BT-549) was > 100 µM (inactive). The GI50 (HOP-92) was > 100 µM (inactive), the GI50 (SF-539) was > 100 µM (inactive) and the GI50 (UACC-257) was > 100 µM (inactive). For the same compound, the GI50 (SN12C) was > 100 µM (inactive), the GI50 (NCI/ADR-RES) was > 100 µM (inactive) and the GI50 (MDA-MB-435) was > 100 µM (inactive). For the same compound, the GI50 (K562) was > 100 µM (inactive), the GI50 (UACC-62) was > 100 µM (inactive) and the GI50 (OVCAR-5) was > 100 µM (inactive). The GI50 (KM12) was > 100 µM (inactive), the GI50 (SW-620) was > 100 µM (inactive) and the GI50 (MOLT-4) was > 100 µM (inactive). For the same compound, the GI50 (DU-145) was > 100 µM (inactive), the GI50 (SK-MEL-2) was > 100 µM (inactive) and the GI50 (Hs-578T) was > 100 µM (inactive). The GI50 (IGROV-1) was > 100 µM (inactive), the GI50 (SK-MEL-28) was > 100 µM (inactive) and the GI50 (LOX IMVI) was > 100 µM (inactive). The GI50 (EKVX) was > 100 µM (inactive), the GI50 (NCI-H23) was > 100 µM (inactive) and the GI50 (A549) was > 100 µM (inactive). For the same compound, the GI50 (SK-MEL-5) was > 100 µM (inactive), the GI50 (PC-3) was > 100 µM (inactive) and the GI50 (Malme-3M) was > 100 µM (inactive). The GI50 (RXF 393) was > 100 µM (inactive), the GI50 (COLO 205) was > 100 µM (inactive) and the GI50 (SNB-75) was > 100 µM (inactive). For the same compound, the GI50 (SR) was > 100 µM (inactive), the GI50 (T47D) was > 100 µM (inactive) and the GI50 (ACHN) was > 100 µM (inactive). For the same compound, the GI50 (M14) was > 100 µM (inactive), the GI50 (UO-31) was > 100 µM (inactive) and the GI50 (HCC 2998) was > 100 µM (inactive). The GI50 (NCI-H522) was > 100 µM (inactive).
`CC(=O)OCC1OC(SC2=N/C(=C\c3ccc(Br)s3)C(=O)N2c2ccccc2)C(OC(C)=O)C(OC(C)=O)C1OC(C)=O` (stereo unspecified) was tested, and the GI50 (MCF7) was 42 µM (inactive) and 78.9 µM (inactive), the GI50 (SF-268) was > 100 µM (inactive) and 55.8 µM (inactive) and the GI50 (A498) was 41.1 µM (inactive) and 58.7 µM (inactive). The GI50 (HCT-15) was > 100 µM and 66.8 µM, the GI50 (TK-10) was 40.6 µM (inactive) and 60.3 µM (inactive) and the GI50 (SNB-19) was 56.4 µM (inactive) and 37.1 µM (inactive). The GI50 (NCI-H460) was 30.1 µM (inactive) and 38.1 µM (inactive), the GI50 (OVCAR-4) was 31.8 µM (inactive) and 41.9 µM (inactive) and the GI50 (HOP-62) was 55 µM (inactive) and 41.7 µM (inactive). For the same compound, the GI50 (MDA-MB-231) was 58.5 µM (inactive) and 42.9 µM (inactive), the GI50 (SF-295) was 39.8 µM (inactive) and 58.1 µM (inactive) and the GI50 (BT-549) was 24.4 µM (inactive) and 41.6 µM (inactive). The GI50 (SN12C) was 50.6 µM (inactive), the GI50 (NCI/ADR-RES) was 40.9 µM (inactive) and 43.1 µM (inactive) and the GI50 (UACC-62) was 30.6 µM (inactive) and 30.9 µM (inactive). The GI50 (OVCAR-5) was > 100 µM (inactive), the GI50 (SW-620) was > 100 µM (inactive) and 92 µM (inactive) and the GI50 (SK-MEL-2) was 16.7 µM (inactive) and 32.6 µM (inactive). For the same compound, the GI50 (Hs-578T) was 48.1 µM (inactive) and 35.2 µM (inactive), the GI50 (SK-MEL-28) was > 100 µM (inactive) and 82.8 µM (inactive) and the GI50 (LOX IMVI) was 47.8 µM (inactive) and 64.3 µM (inactive). For the same compound, the GI50 (EKVX) was 34.3 µM (inactive) and 30.7 µM (inactive), the GI50 (NCI-H23) was 19 µM (inactive) and 33.4 µM (inactive) and the GI50 (SK-MEL-5) was 52.2 µM (inactive) and 42.9 µM (inactive). For the same compound, the GI50 (PC-3) was 34.1 µM (inactive) and 58.5 µM (inactive), the GI50 (Malme-3M) was 50.6 µM (inactive) and 53.6 µM (inactive) and the GI50 (RXF 393) was 12.1 µM (inactive) and 9.64 µM (inactive). The GI50 (COLO 205) was 41.2 µM (inactive) and 57.9 µM (inactive), the GI50 (ACHN) was 32.1 µM (inactive) and 52.1 µM (inactive) and the GI50 (HCC 2998) was 59 µM (inactive) and 36.5 µM (inactive). For the same compound, the GI50 (NCI-H522) was 21.8 µM (inactive) and 25.5 µM (inactive) and the GI50 (MDA-N) was > 100 µM (inactive) and 54.6 µM (inactive).
With `CCCCCCc1cc2cc(C(=O)Nc3ccc(F)cc3)c(=N)oc2cc1O` the GI50 (SK-OV-3) was 2.58 µM (inactive), the GI50 (HCT-116) was 2.51 µM (inactive) and the GI50 (MCF7) was 3.09 µM (inactive). For the same compound, the GI50 (U-251) was 2.45 µM (inactive), the GI50 (HT-29) was 28 µM (inactive) and the GI50 (786-0) was 3.63 µM (inactive). The GI50 (SF-268) was 0.735 µM (active), the GI50 (CCRF-CEM) was 1.35 µM (inactive) and the GI50 (HL-60) was 1.96 µM (inactive). The GI50 (A498) was 5.05 µM (inactive), the GI50 (RPMI-8226) was 1.17 µM (inactive) and the GI50 (CAKI-1) was 3.09 µM (inactive). For the same compound, the GI50 (HCT-15) was 2.51 µM, the GI50 (SNB-19) was 2.98 µM (inactive) and the GI50 (NCI-H460) was 3.51 µM (inactive). The GI50 (OVCAR-4) was 2.52 µM (inactive), the GI50 (OVCAR-3) was 3.48 µM (inactive) and the GI50 (HOP-62) was 3.28 µM (inactive). For the same compound, the GI50 (OVCAR-8) was 1.58 µM (inactive), the GI50 (SF-295) was 3.96 µM (inactive) and the GI50 (BT-549) was 2.66 µM (inactive). For the same compound, the GI50 (SF-539) was 2.17 µM (inactive), the GI50 (UACC-257) was 3.37 µM (inactive) and the GI50 (NCI/ADR-RES) was 2.67 µM (inactive). The GI50 (MDA-MB-435) was 2.92 µM (inactive), the GI50 (K562) was 1.18 µM (inactive) and the GI50 (UACC-62) was 1.92 µM (inactive). The GI50 (OVCAR-5) was 16 µM (inactive), the GI50 (KM12) was 2.92 µM (inactive) and the GI50 (SW-620) was 3.25 µM (inactive). For the same compound, the GI50 (MOLT-4) was 1.93 µM (inactive), the GI50 (DU-145) was 2.71 µM (inactive) and the GI50 (SK-MEL-2) was 3.13 µM (inactive). The GI50 (Hs-578T) was 0.9 µM (active), the GI50 (IGROV-1) was 1.49 µM (inactive) and the GI50 (SK-MEL-28) was 3.27 µM (inactive). For the same compound, the GI50 (LOX IMVI) was 2.08 µM (inactive), the GI50 (EKVX) was 3.27 µM (inactive) and the GI50 (NCI-H23) was 1.78 µM (inactive). For the same compound, the GI50 (A549) was 3.21 µM (inactive), the GI50 (SK-MEL-5) was 1.4 µM (inactive) and the GI50 (PC-3) was 3.37 µM (inactive). The GI50 (Malme-3M) was 2.32 µM (inactive), the GI50 (COLO 205) was 30.8 µM (inactive) and the GI50 (SR) was 2.62 µM (inactive). The GI50 (ACHN) was 2.89 µM (inactive), the GI50 (M14) was 2.92 µM (inactive) and the GI50 (UO-31) was 3.36 µM (inactive). For the same compound, the GI50 (HCC 2998) was 5.37 µM (inactive), the GI50 (NCI-H522) was 0.655 µM (active) and the GI50 (MDA-N) was 3.57 µM (inactive).
